US20020183384A1, “Methods of treating nuclear factor-kappa B mediated diseases and disorders” (priority 2001, published 2002)

system: NF-κB mediated transcription; assay: NF-κB driven β-lactamase reporter assay in ECV-304 NF-κB.βlaZ cells (AURORA CCF2 fluorescence); assay type: cell-based, human; conditions: 10 μM compound; ECV-304 NF-κB.βlaZ cells stimulated with 10 ng/mL TNF-α or 100 pg/mL IL-1β, 6 hours at 37° C.; inhibition of maximum blue/green ratio
Summary of the method: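 ECV-304 cells (clone 1E8) stably carrying a β-lactamase reporter driven by 5 HIV-1 NF-κB sites, plated in M-199 with 2% FBS, compound at 10 μM final. CCF2 read at 395 nm excitation, blue 460 nm/green 530 nm emission ratio; IC50 from dose-response curve.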

With `CC(C)c1cccc(C(C)C)c1OS(=O)(=O)NC(=O)OCCOC(=O)NS(=O)(=O)Oc1c(C(C)C)cccc1C(C)C` [Example 111, Carbamic acid, [[2,6-bis(1-methylethyl)phenoxy]sulfonyl]-, 1,2-ethanediyl ester] the “Percent Inhibition at 10 μM” value was <10%.

First: CC(C)c1cc(C(C)C)c(OC(=O)NS(=O)(=O)Oc2c(C(C)C)cc(C(C)C)cc2C(C)C)c(C(C)C)c1 [Example 126, Carbamic acid, [[2,4,6-tris(1-methylethyl)phenoxy]sulfonyl]-,2,4,6-tris(1-methylethyl)phenyl ester]
Second: CC(C)c1cccc(C(C)C)c1OS(=O)(=O)NC(=O)NCC1(c2ccc(N(C)C)cc2)CCCC1 [Example 217, Sulfamic acid, [[[[1-[4-(dimethylamino)phenyl]cyclopenty]methyl]-amino]carbonyl]-2,6-bis(1-methylethyl)phenyl ester]
The “Percent Inhibition at 10 μM” value of the first is lower: 10.02% for the first, 37.08% for the second.

With `Cc1cc(C(C)(C)C)c(OC(=O)NS(=O)(=O)NC(c2ccccc2)c2ccccc2)c(C(C)(C)C)c1` [Example 3, Carbamic acid, [[(diphenylmethyl)amino]sulfonyl]-, 2,6-bis(l,1-dimethylethyl)-4-methylphenyl ester] the “Percent Inhibition at 10 μM” value was 79.34%.

same assay, conditions: Homo sapiens, ECV-304, 6 h, 10 μM compound; ECV-304 NF-κB.βlaZ cells stimulated with 10 ng/mL TNF-α or 100 pg/mL IL-1β, 6 hours at 37° C.; inhibition of maximum blue/green ratio; read-out: Percent Inhibition at 10 μM

Compared with `CCCCCCCCCCCCOS(=O)(=O)NC(=O)Nc1c(C(C)C)cccc1C(C)C` [Example 69, Sulfamic acid, [[[2,6-bis(1-methylethyl)phenyl]amino]carbonyl]-, dodecyl ester], `CCCCCCCCN(C)S(=O)(=O)NC(=O)Nc1c(C(C)C)cccc1C(C)C` [Example 45, Urea, N-[2,6-bis(1-methylethyl)phenyl]-N′-[(methyloctylamino)sulfonyl]-] is lower in inhibition at 10 µM: 75.5% for the first, 53.5% for the second.

Going from `CC(C)c1cccc(C(C)C)c1OS(=O)(=O)NC(=O)OC1[C@H](C(C)C)CCC[C@H]1C(C)C` [Example 142, Carbamic acid, [[2,6-bis(1-methylethyl)phenoxy]sulfonyl]-, (2S,6S)-2,6-bis(1-methylethyl)cyclohexyl ester] to `CC(C)c1cccc(C(C)C)c1OS(=O)(=O)NC(=O)Sc1c(C(C)C)cccc1C(C)C` [Example 139, Carbamothioic acid, [[2,6-bis(1-methylethyl)phenoxy]sulfonyl]-, S-[2,6-bis(1-methylethyl)phenyl] ester], the inhibition at 10 µM rises from 53.9% to 65.5%.

First: CCCCCCCCCCCCCCCCCCN(C)S(=O)(=O)NC(=O)Nc1c(C(C)C)cccc1C(C)C [Example 80, Urea, N-[2,6-bis(1-methylethyl)phenyl]-N′-[(methyloctadecylamino)-sulfonyl]-]
Second: CCCCCCCCCCCCCC(c1ccccc1)S(=O)(=O)NC(=O)Nc1c(C(C)C)cccc1C(C)C (stereo not shown) [Example 245, N-[2,6-bis(1-methylethyl)phenyl]-N′-(1-phenyl-1-tetradecylsulfonyl)urea]
The inhibition at 10 µM of the first is lower: < 10% for the first, 16.1% for the second.

Going from `CC(C)c1cc(C(C)C)c(CC(=O)NS(=O)(=O)Oc2c(C(C)C)cc(NC(=O)CNC(=O)OC(C)(C)C)cc2C(C)C)c(C(C)C)c1` [Example 198, [(3,5-Diisopropyl-4-{[(2,4,6-triisopropyl-phenyl)-acetyl]sulfamoyloxy}-phenylcarbamoyl)-methyl]-carbamic acid tert-butyl ester] to `CC(C)c1cc(C(C)C)c(CC(=O)NS(=O)(=O)Oc2c(C(C)C)cc(NC(=O)NC(C)(C)C)cc2C(C)C)c(C(C)C)c1` [Example 219, [(2,4,6-Triisopropyl-phenyl)-acetyl]-sulfamic acid 4-(3-tert-butyl-ureido)-2,6-diisopropyl-phenyl ester], the inhibition at 10 µM falls from 75.8% to 15.2%.

Compared with `CC(C)c1cc(C(C)C)c(CC(=O)NS(=O)(=O)Oc2c(C(C)C)cc(C=CC#N)cc2C(C)C)c(C(C)C)c1` [Example 224, [(2,4,6-Triisopropyl-phenyl)-acetyl]-sulfamic acid 4-(2-cyano-vinyl)-2,6-diisopropyl-phenyl ester], `CC(C)c1cc(C(C)C)c(CC(=O)NS(=O)(=O)Oc2c(C(C)C)cc(SC#N)cc2C(C)C)c(C(C)C)c1` [Example 209, [(2,4,6-Triisopropyl-phenyl)-acetyl]-sulfamic acid 2,6-diisopropyl-4-thiocyanato-phenyl ester] is higher in inhibition at 10 µM: < 10% for the first, 56.8% for the second.

Compared with `CC(C)c1cc(C(C)C)c(CC(=O)NS(=O)(=O)Oc2c(Cl)cccc2Cl)c(C(C)C)c1` [Example 193, [(2,4,6-Triisopropyl-phenyl)-acetyl]-sulfamic acid 2,6-dichloro-phenyl ester], `COc1cccc(OC)c1OS(=O)(=O)NC(=O)Cc1c(C(C)C)cc(C(C)C)cc1C(C)C` [Example 186, [(2,4,6-Triisopropyl-phenyl)-acetyl]-sulfamic acid 2,6-dimethoxy-phenyl ester] is lower in inhibition at 10 µM: 38.3% for the first, 18.8% for the second.

Going from `CC(C)c1cccc(C(C)C)c1OS(=O)(=O)NC(=O)C1CCc2ccccc2C1` (stereo not shown) [Example 165, (1,2,3,4-Tetrahydro-naphthalene-2-carbonyl)-sulfamic acid 2,6-diisopropyl-phenyl ester] to `CC(C)c1cccc(C(C)C)c1OS(=O)(=O)NC(=O)C(C)c1ccccc1` (stereo not shown) [Example 159, (2-Phenyl-propionyl)-sulfamic acid 2,6-diisopropyl-phenyl ester], the inhibition at 10 µM falls from 28.7% to 10.1%.

Going from `CC(C)c1cccc(C(C)C)c1OS(=O)(=O)NC(=O)C1c2ccccc2Oc2ccccc21` [Example 173, (9H-Xanthene-9-carbonyl)-sulfamic acid 2,6-diisopropyl-phenyl ester] to `CCC(C(=O)NS(=O)(=O)Oc1c(C(C)C)cccc1C(C)C)c1ccccc1` (stereo not shown) [Example 169, (2-Phenyl-butyryl)-sulfamic acid 2,6-diisopropyl-phenyl ester], the inhibition at 10 µM falls from 36.9% to 21.3%.

Going from `CCCCN(CCCC)S(=O)(=O)NC(=O)Nc1c(C(C)C)cccc1C(C)C` [Example 21, N-[2,6-bis(1-methylethyl)phenyl]-N′-[(dibutylamino)sulfonyl]-urea] to `C=CCN(CC=C)S(=O)(=O)NC(=O)Nc1c(C(C)C)cccc1C(C)C` [Example 81, Urea, N-[2,6-bis(1-methylethyl)phenyl]-N′-[(di-2-propenylamino)-sulfonyl]-], the inhibition at 10 µM falls from 29.4% to < 10%.

Compared with `CC(C)c1cc(C(C)C)c(CC(=O)NS(=O)(=O)Oc2c(C(C)C)cc(NC(=O)CN)cc2C(C)C)c(C(C)C)c1` [Example 200, [(2,4,6-Triisopropyl-phenyl)-acetyl]-sulfamic acid 4-(2-amino-acetylamino)-2,6-diisopropyl-phenyl ester], `CC(C)c1cccc(C(C)C)c1OS(=O)(=O)NC(=O)Cc1ccsc1` [Example 149, (Thiophen-3-yl-acetyl)-sulfamic acid 2,6-diisopropyl-phenyl ester] is lower in inhibition at 10 µM: 72.7% for the first, < 10% for the second.

With `CC(C)c1cccc(C(C)C)c1OS(=O)(=O)NC(=O)C(c1ccccc1)C1CCCCC1` (stereo not shown) [Example 170, (Cyclohexyl-phenyl-acetyl)-sulfamic acid 2,6-diisopropyl-phenyl ester] the inhibition at 10 µM was 78.6%.

same assay, conditions: Homo sapiens; 10 μM compound; ECV-304 NF-κB.βlaZ cells stimulated with 10 ng/mL TNF-α or 100 pg/mL IL-1β, 6 hours at 37° C.; inhibition of maximum blue/green ratio; read-out: Percent Inhibition at 10 μM

`CC(C)(C)c1cc(O)cc(C(C)(C)C)c1OC(=O)NS(=O)(=O)Nc1ccccc1` [Example 14, Carbamic acid, [(phenylamino)sulfonyl]-, 2,6-bis(1,1-dimethylethyl)-4-hydroxyphenyl ester] and `Cc1cc(C(C)(C)C)c(OC(=O)NS(=O)(=O)Oc2ccccc2)c(C(C)(C)C)c1` [Example 48, Carbamic acid, (phenoxysulfonyl)-, 2,6-bis(1,1-dimethylethyl)-4-methylphenyl ester] are the same in inhibition at 10 µM: 13.8% for the first, 13.8% for the second.

`CC(C)c1cc(Br)cc(C(C)C)c1OC(=O)NS(=O)(=O)Oc1c(C(C)C)cccc1C(C)C` [Example 113, Carbamic acid, [[2,6-bis(1-methylethyl)phenoxy]sulfonyl]-, 4-bromo-2,6-bis(1-methylethyl)phenyl ester] and `CC(C)c1cccc(C(C)C)c1OC(=O)NS(=O)(=O)N(C(C)C)C(C)C` [Example 62, Carbamic acid, [[bis(1-methylethyl)amino]sulfonyl]-, 2,6-bis(1-methylethyl)-phenyl ester] cannot be ordered by inhibition at 10 µM: < 10% for the first, < 10% for the second.

Compared with `CCCCCCN(CCCCCC)S(=O)(=O)NC(=O)Oc1c(C(C)(C)C)cc(C)cc1C(C)(C)C` [Example 33, Carbamic acid, [(dihexylamino)sulfonyl]-, 2,6-bis(1,1-dimethylethyl)-4-methylphenyl ester], `CCCCCCCCN(CCCCCCCC)S(=O)(=O)NC(=O)Oc1c(C(C)(C)C)cc(C)cc1C(C)(C)C` [Example 46, Carbamic acid, [(dioctylamino)sulfonyl]-, 2,6-bis(1,1-dimethylethyl)-4-methylphenyl ester] is lower in inhibition at 10 µM: 58.6% for the first, 34.8% for the second.

First: CC(C)c1cccc(C(C)C)c1OS(=O)(=O)NC(=O)Oc1c(C(C)(C)C)cc(SSc2cc(C(C)(C)C)c(O)c(C(C)(C)C)c2)cc1C(C)(C)C [Example 128, Carbamic acid, [[2,6-bis(1-methylethyl)phenoxy]sulfonyl]-, 4-[[3,5-bis(1,1-dimethylethyl)-4-hydroxyphenyl]dithio]-2,6-bis(1,1-dimethylethyl)phenyl ester]
Second: CCCCCCCCN(CCCCCCCC)S(=O)(=O)NC(=O)Oc1c(C(C)C)cccc1C(C)C [Example 85, Carbamic acid, [(dioctylamino)sulfonyl]-, 2,6-bis(1-methylethyl)phenyl ester]
The inhibition at 10 µM of the first is lower: < 10% for the first, 45% for the second.

For `CCCCCCCCCCCCOS(=O)(=O)NC(=O)Oc1c(-c2ccccc2)cccc1-c1ccccc1` [Example 92, Carbamic acid, [(dodecyloxy)sulfonyl]-, [1,1′:3′,1″-terphenyl]-2′-yl ester], the inhibition at 10 µM was < 10%.
